Experimental data from US5045566A, “Novel imidate insecticides” (ICI Americas Inc., priority 1989, dated 1991).

Legend:
Format in all cases: in vivo
[1] = system: Black Bean Aphid [Aphis fabae (Scop.)]; assay: Black bean aphid spray test on nasturtium (BBA), 48 hours; settings: percent of test compound in sprayed solution
How it was run: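 LC50, given as percent test compound in the sprayed liquid, was calculated from dosage-mortality curves using concentrations from 0.05% downward. Sprays in 50:50 acetone-water went to runoff on ~5 cm nasturtiums carrying 25-50 aphids of mixed ages, one day after infestation. Deaths were counted 48 h later under greenhouse conditions.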

[2] = system: Tobacco Budworm [Heliothis virescens (Fabricius)] larvae; assay: Tobacco budworm larvae, contact (TBW-C), 5 days; settings: percent in solution, second-instar larvae
Experimental: The compounds in Tables 1 and 2 above were tested for insecticidal activity using the following testing procedures. LC50 values, based on the results of these tests and calculated according to dosage-mortality curves, are expressed in Table 3.
Tobacco Budworm [Heliothis virescens (Fabricius)]:
(a) Contact: Test compounds were diluted in a 50-50 acetone-water solution. Cotton (Gossypium sp.) cotyledons were immersed in the test solutions for 2-3 seconds and placed on a wire screen to dry. The dried leaves were placed in petri dishes containing a moistened piece of filter paper and infested with 5 second-instar tobacco budworm larvae. The dishes were placed in a high humidity chamber for 5 days, and percent mortality of the larvae recorded. Test concentrations ranged from 0.1% downward. The LC-50 values are expressed below in Table 3 under the heading "TBW-C" in terms of percent of the test compound in the solution.

[3] = system: Cabbage Looper [Trichoplusia ni (Hubner)]; assay: Cabbage looper leaf dip (CL), 3-5 days; settings: percent in solution, second-instar larvae
How it was run: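 Squash cotyledons dipped in test solution (acetone-water 50-50, ≤0.1%), dried, offered to 5 second-instar larvae; mortality after 3-5 days gives LC50.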

[4] = system: Maize weevil [Sitophilus zeamais (Motschulsky)]; assay: Maize weevil on dipped corn seeds (MW), 48 hours; settings: percent in solution, adult weevils
How it was run: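 LC50, given as percent of compound in dipping solution, comes from dosage-mortality curves over concentrations descending from 0.01%. Four corn seeds soaked 2-3 s in 50:50 acetone:water solution were dried and held with 10 adult weevils, about 25° C, mortality read after 48 h.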

[5] = system: Housefly [Musca domestica]; assay: Housefly contact mortality in dishes (HF), 48 hours; settings: μg of test compound per 25 female flies
How it was run: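 LC50, as μg compound per 25 female flies, comes from dosage-mortality curves with doses from 100 μg downward. Residues were made by evaporating acetone plus 0.01% peanut oil in dishes, onto which 1-2-day-old females were caged; deaths were counted after 48 hours.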

[6] = system: Aster Leafhopper [Macrosteles fascifrens (Stal)]; assay: Aster leafhopper on dipped oat seedlings (LH), 48 hours; settings: percent in solution, adults/nymphs
How it was run: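 LC50 values, given as percent of test compound in the dip solution, were derived from dosage-mortality curves over concentrations from 0.05% downward. Mortality was counted 48 hours after ten leafhopper adults/nymphs were enclosed on treated seedlings. The seedlings were oats, about 10 cm tall, briefly dipped in 50-50 acetone-water.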

[7] = system: Tobacco Budworm [Heliothis virescens (Fabricius)] eggs; assay: Tobacco budworm eggs (TBW-E); settings: percent in solution; 2-day old eggs
How it was run: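 Step 1: dip 2-day old egg patches in acetone test solutions (top concentration 0.1%). Step 2: hold in dishes with rearing medium at 78° F. Step 3: record mortality after control hatch and feeding.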

## CC(C)(C)C(=Nc1ccc(Cl)cc1)OCc1cccc(Oc2ccccc2)c1 [Compound 30]
[1]
  LC50 BBA: > 0.05%
[2]
  LC50 TBW C (contact): 0.01%
[3]
  LC50 CL: 0.003%
[4]
  LC50 MW: > 0.01%
[5]
  LC50 HF: > 100 µg
[6]
  LC50 LH: > 0.05%
[7]
  LC50 TBW E (eggs): > 0.1%

## CC(C)C(=Nc1ccc(Cl)c(Cl)c1)OCc1cccc(Oc2ccc(F)cc2)c1 [Compound 37]
[2]
  LC50 TBW C (contact): 0.0005%
[3]
  LC50 CL: 0.0004%
[4]
  LC50 MW: 0.009%
[5]
  LC50 HF: 21 µg
[6]
  LC50 LH: 0.002%
[7]
  LC50 TBW E (eggs): 0.014%

## CC(C)C(=Nc1c(F)c(F)c(F)c(F)c1F)OCc1cccc(Oc2ccccc2)c1 [Compound 51]
[1]
  LC50 BBA: 0.01%
[2]
  LC50 TBW C (contact): 0.0025%
[3]
  LC50 CL: 0.001%
[5]
  LC50 HF: 25 µg
[6]
  LC50 LH: 0.001%
[7]
  LC50 TBW E (eggs): 0.067%

## CC(C)C(=Nc1ccc(F)c(F)c1)OCc1cccc(Oc2ccc(F)cc2)c1 [Compound 60, N-(3,4-Difluorophenyl)-O-(4'-fluoro-3-phenoxybenzyl)isobutyrylimidate]
[2]
  LC50 TBW C (contact): 0.0009%
[3]
  LC50 CL: 0.001%
[4]
  LC50 MW: 0.0075%
[5]
  LC50 HF: 8 µg
[6]
  LC50 LH: 0.002%
[7]
  LC50 TBW E (eggs): 0.017%

## Cc1ccc(N=C(OCc2cccc(Oc3ccccc3)c2)C(C)C)cc1F [Compound 75]
[1]
  LC50 BBA: 0.0006%
[2]
  LC50 TBW C (contact): 0.0075%
[3]
  LC50 CL: 0.0025%
[5]
  LC50 HF: 5 µg
[6]
  LC50 LH: 0.0008%
[7]
  LC50 TBW E (eggs): 0.01%

## Cc1cc(Cl)ccc1N=C(OCc1cccc(Oc2ccccc2)c1)C(C)C [Compound 96]
[1]
  LC50 BBA: 0.002%
[2]
  LC50 TBW C (contact): 0.0025%
[3]
  LC50 CL: 0.003%
[5]
  LC50 HF: 35 µg
[7]
  LC50 TBW E (eggs): 0.025%

## CC(C)C(=Nc1ccc(F)c(C(F)(F)F)c1)OCc1cccc(Oc2ccc(F)cc2)c1 [Compound 120]
[1]
  LC50 BBA: 0.0006%
[2]
  LC50 TBW C (contact): 0.0025%
[3]
  LC50 CL: 0.00015%
[4]
  LC50 MW: > 0.01%
[5]
  LC50 HF: 14 µg
[6]
  LC50 LH: 0.0003%
[7]
  LC50 TBW E (eggs): 0.04%

## CCOc1ccc(N=C(OCc2cccc(Oc3ccccc3)c2)C(Cl)Cl)cc1 [Compound 138]
[1]
  LC50 BBA: 0.003%
[2]
  LC50 TBW C (contact): 0.015%
[3]
  LC50 CL: 0.005%
[4]
  LC50 MW: > 0.01%
[5]
  LC50 HF: 19 µg
[7]
  LC50 TBW E (eggs): 0.08%

## CC(C)(C)c1ccc(N=C(OCc2cccc(Oc3ccccc3)c2)C(Cl)Cl)cc1 [Compound 140]
[1]
  LC50 BBA: 0.05%
[2]
  LC50 TBW C (contact): > 0.1%
[3]
  LC50 CL: < 0.1%
[5]
  LC50 HF: > 100 µg
[7]
  LC50 TBW E (eggs): > 0.1%

## COc1ccccc1N=C(OCc1cccc(Oc2ccccc2)c1)C(C)C [Compound 145]
[1]
  LC50 BBA: > 0.05%
[2]
  LC50 TBW C (contact): 0.05%
[3]
  LC50 CL: 0.05%
[5]
  LC50 HF: > 100 µg
[6]
  LC50 LH: > 0.05%
[7]
  LC50 TBW E (eggs): > 0.1%

## COc1ccc(N=C(OCc2cccc(Oc3ccccc3)c2)C(C)C)c(OC)c1 [Compound 146]
[1]
  LC50 BBA: 0.05%
[2]
  LC50 TBW C (contact): 0.025%
[3]
  LC50 CL: 0.017%
[5]
  LC50 HF: 40 µg
[7]
  LC50 TBW E (eggs): > 0.1%

## CC(=O)c1ccc(N=C(OCc2cccc(Oc3ccccc3)c2)C(C)C)cc1 [Compound 147]
[1]
  LC50 BBA: 0.03%
[2]
  LC50 TBW C (contact): 0.0075%
[3]
  LC50 CL: 0.01%
[5]
  LC50 HF: 10 µg
[7]
  LC50 TBW E (eggs): > 0.1%

## CC(C)C(=Nc1cccc(Cl)c1)OCc1cccc(Oc2ccc(F)cc2)c1 [Compound 194]
[1]
  LC50 BBA: 0.001%
[2]
  LC50 TBW C (contact): 0.0017%
[3]
  LC50 CL: 0.0005%
[4]
  LC50 MW: > 0.01%
[5]
  LC50 HF: 10 µg
[6]
  LC50 LH: 0.0005%
[7]
  LC50 TBW E (eggs): 0.04%

## CC(C)C(=Nc1ccc(F)c(Cl)c1)OCc1cccc(Oc2ccc(C#N)cc2)c1 [Compound 196]
[2]
  LC50 TBW C (contact): 0.001%
[3]
  LC50 CL: 0.0006%
[4]
  LC50 MW: > 0.01%
[5]
  LC50 HF: 17 µg
[6]
  LC50 LH: > 0.05%
[7]
  LC50 TBW E (eggs): > 0.1%

## CC(C)C(=Nc1cc(F)cc(F)c1)OCc1cccc(Oc2ccc(F)cc2)c1 [Compound 199]
[2]
  LC50 TBW C (contact): 0.003%
[3]
  LC50 CL: 0.0006%
[4]
  LC50 MW: > 0.01%
[5]
  LC50 HF: 8 µg
[7]
  LC50 TBW E (eggs): > 0.1%

## CC(C)C(=Nc1cccc(C(F)(F)F)c1)OCc1cccc(Oc2ccc(F)cc2)c1 [Compound 202]
[1]
  LC50 BBA: 0.003%
[2]
  LC50 TBW C (contact): 0.0007%
[3]
  LC50 CL: 0.00024%
[4]
  LC50 MW: > 0.01%
[5]
  LC50 HF: 18 µg
[6]
  LC50 LH: 0.0003%
[7]
  LC50 TBW E (eggs): > 0.1%

## CC(C)(C)C(=Nc1ccc(F)c(Cl)c1)OCc1cccc(Oc2ccc(F)cc2)c1 [Compound 204]
[2]
  LC50 TBW C (contact): 0.004%
[3]
  LC50 CL: 0.0023%
[4]
  LC50 MW: > 0.01%
[5]
  LC50 HF: > 100 µg
[7]
  LC50 TBW E (eggs): > 0.1%

## CC(C)C(=Nc1ccc(F)cc1F)OCc1cccc(Oc2ccc(F)cc2)c1 [Compound 209]
[1]
  LC50 BBA: 0.01%
[2]
  LC50 TBW C (contact): 0.005%
[3]
  LC50 CL: 0.0007%
[4]
  LC50 MW: > 0.01%
[5]
  LC50 HF: 17 µg
[6]
  LC50 LH: 0.001%
[7]
  LC50 TBW E (eggs): 0.1%

## CCC(C)C(=Nc1ccc(F)c(Cl)c1)OCc1cccc(Oc2ccc(F)cc2)c1 (centres unmarked) [Compound 210]
[1]
  LC50 BBA: 0.01%
[2]
  LC50 TBW C (contact): 0.0015%
[3]
  LC50 CL: 0.00028%
[4]
  LC50 MW: > 0.01%
[5]
  LC50 HF: 35 µg
[7]
  LC50 TBW E (eggs): 0.045%

## CC(C)C(=Nc1ccc2c(c1)OC(C)(C)O2)OCc1cccc(Oc2ccc(F)cc2)c1 [Compound 219]
[1]
  LC50 BBA: 0.003%
[2]
  LC50 TBW C (contact): 0.004%
[3]
  LC50 CL: 0.00025%
[4]
  LC50 MW: > 0.01%
[5]
  LC50 HF: 50 µg
[7]
  LC50 TBW E (eggs): 0.027%

## CC(C)C(=Nc1ccc(Br)cc1)OCc1cccc(Oc2ccc(F)cc2)c1 [Compound 226]
[1]
  LC50 BBA: 0.01%
[2]
  LC50 TBW C (contact): 0.001%
[3]
  LC50 CL: 0.0005%
[4]
  LC50 MW: 0.009%
[5]
  LC50 HF: 16 µg
[6]
  LC50 LH: 0.002%
[7]
  LC50 TBW E (eggs): 0.1%

## CC(C)C(=Nc1ccc(I)cc1)OCc1cccc(Oc2ccc(F)cc2)c1 [Compound 234]
[1]
  LC50 BBA: 0.003%
[2]
  LC50 TBW C (contact): 0.0013%
[3]
  LC50 CL: 0.00045%
[4]
  LC50 MW: > 0.01%
[5]
  LC50 HF: 38 µg
[6]
  LC50 LH: 0.003%
[7]
  LC50 TBW E (eggs): 0.09%

## CC(C)C(=Nc1ccc(F)c(Cl)c1)OCc1cccc(Oc2ccc(Br)cc2)c1 [Compound 238]
[1]
  LC50 BBA: 0.003%
[2]
  LC50 TBW C (contact): 0.0004%
[3]
  LC50 CL: 0.0002%
[4]
  LC50 MW: > 0.01%
[5]
  LC50 HF: 25 µg
[6]
  LC50 LH: > 0.05%
[7]
  LC50 TBW E (eggs): 0.05%

## CC(C)C(=Nc1ccc(F)c(Br)c1)OCc1cccc(Oc2ccc(F)cc2)c1 [Compound 253]
[1]
  LC50 BBA: 0.002%
[2]
  LC50 TBW C (contact): 0.0005%
[3]
  LC50 CL: 0.00013%
[4]
  LC50 MW: > 0.01%
[5]
  LC50 HF: 10 µg
[6]
  LC50 LH: 0.003%
[7]
  LC50 TBW E (eggs): > 0.1%

## CC(C)C(=Nc1cccc(C(F)(F)F)c1)OCc1ccc(F)c(Oc2ccc(Cl)cc2)c1 [Compound 266]
[1]
  LC50 BBA: > 0.05%
[2]
  LC50 TBW C (contact): 0.0007%
[3]
  LC50 CL: 0.00016%
[5]
  LC50 HF: 10 µg
[7]
  LC50 TBW E (eggs): 0.06%

## CC(C)C(=Nc1ccc(F)c(C(F)(F)F)c1)OCc1ccc(F)c(Oc2ccc(Cl)cc2)c1 [Compound 297]
[2]
  LC50 TBW C (contact): 0.00075%
[3]
  LC50 CL: 0.00027%
[4]
  LC50 MW: 0.0071%
[5]
  LC50 HF: 23 µg
[6]
  LC50 LH: 0.0001%
[7]
  LC50 TBW E (eggs): 0.025%

## C=C(C)C(=Nc1ccc(C(F)(F)F)cc1)OCc1ccc(F)c(Oc2ccc(Cl)cc2)c1 [Compound 432]
[1]
  LC50 BBA: 0.001%
[2]
  LC50 TBW C (contact): < 0.1%
[3]
  LC50 CL: 0.0012%
[4]
  LC50 MW: > 0.01%
[5]
  LC50 HF: < 100 µg
[7]
  LC50 TBW E (eggs): 0.032%
